SMILES strings stand for the structures. Square brackets hold non-standard residues; d marks the D form. Peptide text beside a SMILES is read from it. * marks the point of attachment. NH((S)CH(Me)CH2NHC2H4OH) = C[C@@H](CNCCO)N*; Gly(octyl) = CCCCCCCC[C@H](N)C(=O)O; Cha = N[C@@H](CC1CCCCC1)C(=O)O; Decanoyl = CCCCCCCCCC(=O)*; X2 = C[C@@H](CN1CCOCC1)N*; Hexanoyl = CCCCCC(=O)*; Alaol = C[C@@H](CO)N*; Aib = CC(C)(N)C(=O)O; X3 = C[C@H](CNCCO)N*; Butyryl = CCCC(=O)*; βAla = NCCC(=O)O; X4 = OCCNCCN*

Holding throughout (assay type): functional, cell-based
One assay deals with MDA-MB-468. Briefly: Antiproliferative activity against human MDA-MB-468 cells assessed as reduction in cell growth by SRB assay. Background: The SRB assay estimates cell density from bound dye.
The next assay concerns T47D. Kind of assay: Antiproliferative activity against human T47D cells assessed as reduction in cell growth by SRB assay.
In a further assay the test system is SK-BR-3. Kind of assay: Antiproliferative activity against human SKBR3 cells assessed as reduction in cell growth by SRB assay.
For the next assay, the system named is NCI-H460. Kind of assay: Antiproliferative activity against human NCI-H460 cells assessed as reduction in cell growth by SRB assay.

For the compound `CCCCCCCC[C@H](NC(=O)C(C)(C)NC(=O)C(C)(C)NC(=O)[C@H](CC1CCCCC1)NC(=O)[C@H](C)NC(=O)CCC)C(=O)N[C@@H](CC(C)C)C(=O)NC(C)(C)C(=O)N[C@@H](CC(C)C)C(=O)NCCC(=O)N[C@@H](C)CNCCO` (Butyryl-A[Cha][Aib][Aib][Gly(octyl)]L[Aib]L[βAla]-{NH((S)CH(Me)CH2NHC2H4OH)}), the IC50 in the assay on MDA-MB-468 came out at 3 nM; in the assay on T47D, 5 nM; with SK-BR-3, 10 nM; in the assay with NCI-H460 it was 2 nM.

For the compound `CCCCCCCCCC(=O)N1CCC[C@H]1C(=O)N[C@@H](CC1CCCCC1)C(=O)NC(C)(C)C(=O)NC(C)(C)C(=O)N[C@@H](CCCCCCCC)C(=O)N[C@@H](CC(C)C)C(=O)NC(C)(C)C(=O)N[C@@H](CC(C)C)C(=O)NCCC(=O)N[C@@H](C)CNCCO` (Decanoyl-P[Cha][Aib][Aib][Gly(octyl)]L[Aib]L[βAla]-{NH((S)CH(Me)CH2NHC2H4OH)}), the IC50 in the assay on MDA-MB-468 was 6 nM; with T47D, 13 nM; in the assay on SK-BR-3, 20 nM; with NCI-H460 it was 9 nM.

In the case of `CCCCCCCC[C@H](NC(=O)C(C)(C)NC(=O)C(C)(C)NC(=O)[C@H](CC1CCCCC1)NC(=O)[C@@H]1CCCN1C(=O)CCC)C(=O)N[C@@H](CC(C)C)C(=O)NC(C)(C)C(=O)N[C@@H](CC(C)C)C(=O)NCCC(=O)N[C@H](C)CNCCO` (Butyryl-P[Cha][Aib][Aib][Gly(octyl)]L[Aib]L[βAla]-X3), the IC50 came out at 31 nM in the assay on MDA-MB-468, 31 nM in the assay with T47D, 205 nM with SK-BR-3 and 50 nM in the assay with NCI-H460.

On to `CCCCCCCC[C@H](NC(=O)C(C)(C)NC(=O)C(C)(C)NC(=O)[C@H](CC1CCCCC1)NC(=O)[C@@H]1CCCN1C(=O)CCC)C(=O)N[C@@H](CC(C)C)C(=O)NC(C)(C)C(=O)N[C@@H](CC(C)C)C(=O)NCCC(=O)N[C@@H](C)CN1CCOCC1` (Butyryl-P[Cha][Aib][Aib][Gly(octyl)]L[Aib]L[βAla]-X2), for which the IC50 came to 59 nM in the assay with MDA-MB-468, 36 nM in the assay on T47D, 99 nM in the assay with SK-BR-3 and 34 nM in the assay with NCI-H460.

For `CCCCCCCC[C@H](NC(=O)C(C)(C)NC(=O)C(C)(C)NC(=O)[C@H](CC1CCCCC1)NC(=O)[C@@H]1CCCN1C(=O)CCC)C(=O)N[C@@H](CC(C)C)C(=O)NC(C)(C)C(=O)N[C@@H](CC(C)C)C(=O)NCCC(=O)NCCNCCO` (Butyryl-P[Cha][Aib][Aib][Gly(octyl)]L[Aib]L[βAla]-X4), the IC50 is 10 nM in the assay with MDA-MB-468, 15 nM in the assay with T47D, 67 nM in the assay on SK-BR-3 and 17 nM with NCI-H460.

In the case of `CCCCCCCC[C@H](NC(=O)C(C)(C)NC(=O)C(C)(C)NC(=O)[C@H](CC1CCCCC1)NC(=O)[C@@H]1CCCN1C(=O)CCC)C(=O)N[C@@H](CC(C)C)C(=O)NC(C)(C)C(=O)N[C@@H](CC(C)C)C(=O)NCCC(=O)N[C@@H](C)CO` (Butyryl-P[Cha][Aib][Aib][Gly(octyl)]L[Aib]L[βAla]-Alaol), the IC50 in the assay on MDA-MB-468 was 336 nM; with T47D it was 490 nM; in the assay with SK-BR-3 it was 509 nM; in the assay with NCI-H460, 130 nM.

For `CCCCCCCC[C@H](NC(=O)C(C)(C)NC(=O)C(C)(C)NC(=O)[C@H](CC1CCCCC1)NC(=O)[C@@H]1CCCN1)C(=O)N[C@@H](CC(C)C)C(=O)NC(C)(C)C(=O)N[C@@H](CC(C)C)C(=O)NCCC(=O)N[C@@H](C)CNCCO` (H-P[Cha][Aib][Aib][Gly(octyl)]L[Aib]L[βAla]-{NH((S)CH(Me)CH2NHC2H4OH)}), the IC50 in the assay with MDA-MB-468 is 10 nM; with T47D, 13 nM; with SK-BR-3, 57 nM; with NCI-H460 it was 9 nM.

In the case of `CCCCCCCC[C@H](NC(=O)C(C)(C)NC(=O)C(C)(C)NC(=O)[C@H](CC1CCCCC1)NC(=O)[C@@H]1CCCN1C(=O)CCCCC)C(=O)N[C@@H](CC(C)C)C(=O)NC(C)(C)C(=O)N[C@@H](CC(C)C)C(=O)NCCC(=O)N[C@@H](C)CNCCO` (Hexanoyl-P[Cha][Aib][Aib][Gly(octyl)]L[Aib]L[βAla]-{NH((S)CH(Me)CH2NHC2H4OH)}), the IC50 in the assay on MDA-MB-468 was 5 nM; in the assay on T47D it was 7 nM; with SK-BR-3, 18 nM; in the assay on NCI-H460, 4 nM.

Usually IC50 stands for the concentration at which inhibition is half-maximal.

For the origin of these results see ChEMBL document CHEMBL4622945, “Synthesis and antiproliferative activity of C- and N-terminal analogues of culicinin D” (Bioorg Med Chem Lett, 2020).
